From patent US11945794B2, “Nuclear transport modulators and uses thereof” (Karyopharm Therapeutics Inc., priority 2013, dated 2024)

How the values were obtained:
MOLT 4 xenograft = test: MOLT 4 acute lymphoblastic leukemia xenograft model; format: in vivo, mouse; conditions: 5 or 15 mg/kg PO daily, SCID mice, compared to vehicle
Procedure: MOLT 4 (CRL-1582) acute lymphoblastic leukemia cells were obtained from ATCC. These cells were grown in RPMI-1640 medium supplemented with 10% fetal bovine serum, 1% penicillin and streptomycin. Cells were sub-cultured by transferring floating cells to a new flask and trypsinizing adherent cells before subculturing at a ratio of 1:4. MOLT 4 cells were harvested by centrifugation and counted using a hemocytometer. Cells were resuspended in PBS at a concentration of 5×10^7 cells per mL. Cells were placed on ice, and then mixed with an equal volume of Matrigel™ (BD Biosciences CB-40234). This mixture was kept on ice and injected into the left flank of mice in a volume of 0.2 mL, equivalent to 5×10^6 cells per mouse. Thirty-two (32) SCID mice were inoculated subcutaneously in the left flank with 5×10^6 MOLT 4 cells. Treatment was initiated when the tumors reached a mean volume of 106.5 mm^3 (standard deviation±33.9 mm^3, CV 31.9%, range 43-181 mm^3). Mice were allocated to four (4) groups of eight (8) mice, […], such that mean tumor volume in each group was within the range of 102 to 111 mm^3. […] With the exception of doxorubicin (which was given IP), all compounds were given by oral gavage. […] Animal weights and conditions were recorded daily, and tumors were measured on Mondays, Wednesdays and Fridays.

[1] = tested on: XPO1 cargo proteins: p53, IκB, Foxo1A, PP2A, p21 and p27; test: XPO1 cargo localization assay in U2OS cells (immunofluorescence); format: cell-based; conditions: 500 nM, 4 to 24 hours
Procedure: The fixed cells were analyzed by immunofluorescence (IF) for the nuclear localization of the following XPO1 cargo proteins: p53, IκB, Foxo1A, PP2A, p21 and p27. Nuclei were stained with DAPI. Images were taken at 20× magnification.

U251MG spheroids = test: Glioblastoma spheroid assay; format: cell-based; conditions: 1 μM, U251MG spheroids in Matrigel, compared with control
Procedure: (§1) Cells (U87MG and U251MG) were detached and re-suspended at 1×10^5 cells/mL. 5,000 cells were loaded into a hanging drop plate (3D Biomatrix Cat. No.: HDP1096) and incubated for 5 days (37° C.; 5% CO2) to form spheroids. 300 μL of Matrix Gel (Corning Matrigel Cat #354234; Lot #3330622) were plated per well in a 24-well plate and incubated for 30 minutes. Spheroids were removed from the hanging drop plate and seeded into the […]™ (1 spheroid per well). Spheroids were incubated for 15 minutes and then 460 μL media was added. […] The plates were analyzed at several time points using 40× and 20× phase microscopes, and photos of the spheroids were taken.

U87MG spheroids = test: Glioblastoma spheroid assay; format: cell-based; conditions: 1 μM, U87MG spheroids in Matrigel, compared with control
Procedure: as §1

Z-138 xenograft = test: Z-138 mantle cell lymphoma xenograft model; format: in vivo, mouse
Procedure: Z-138 (ATCC #CRL-3001) mantle cell lymphoma cells were obtained from ATCC. These cells were grown in IMEM medium supplemented with 10% horse serum, 1% penicillin and streptomycin, and 2 mM L-glutamine. Cells were sub-cultured by dilution at a ratio of 1:5 to 1:10. Z-138 cells were harvested by centrifugation and counted using a hemocytometer. Cells were resuspended in PBS at a concentration of 2×10^8 cells per mL. Cells were placed on ice and mixed with an equal volume of Matrigel (BD Biosciences CB-40234). This mixture was kept on ice and injected into the left flank of mice in a volume of 0.2 mL, equivalent to 2×10^7 cells per mouse. Thirty-two (32) CB-17 SCID mice were inoculated subcutaneously in the left flank with 2×10^7 Z-138 cells. Treatment was initiated when the tumors reached a mean volume of 125.2 mm^3. Mice were allocated to four (4) groups of eight (8) mice such that mean tumor volume in each group was within the range of 106.5 to 138.8 mm^3. […] Animal weights and conditions were recorded daily, and tumors were measured on Mondays, Wednesdays and Fridays.

MDA-MB-468 xenograft = MDA-MB-468 xenograft model; format: in vivo, mouse; conditions: 10 mg/kg PO once daily, CB-17 SCID mice, compared to vehicle
Procedure: MDA-MB-468 (ATCC #HTB-102) breast adenocarcinoma cells were obtained from ATCC. These cells were grown in high glucose DMEM medium supplemented with 10% fetal bovine serum, 1% penicillin and streptomycin, and 2 mM L-Glutamine. Cells were sub-cultured by dilution at a ratio of 1:4. MDA-MB-468 cells were harvested by trypsinization and counted using a hemocytometer. Cells were resuspended in PBS at a concentration of 4×10^8 cells per mL. Cells were placed on ice and mixed with an equal volume of Matrigel (BD Biosciences CB-40234). Twenty-two (22) CB-17 SCID mice were inoculated sub-cutaneously in the left flank with 4×10^7 MDA-MB-468 cells. Treatment was initiated when the tumors reached a mean volume of ˜100 mm^3. […] Animals' weights and condition were recorded daily, and tumors were measured on Mondays, Wednesdays, and Fridays.

CRM1 = target: T1, CRM1 (Homo sapiens, UniProt O14980); test: Washout assay in U2OS Rev-GFP cells; format: cell-based; conditions: 24 hour washout versus no washout
T1 construct: endogenous in cells; host or cells: U2OS cells stably expressing Rev-GFP
Procedure: After 4 hours, one of the plates was fixed with PFA (no washout, condition A). […] A second plate was fixed with PFA after a 4 hour washout (4 hr washout, condition B) and a third plate was fixed with PFA after a 24 hour washout (24 h washout, condition C). Cells were counterstained with the nuclear dye DAPI.

wild-type CRM1 = target: T2, wild-type CRM1 (Homo sapiens, UniProt O14980); test: Cys 528 mutation assay, Rev-GFP localization; format: cell-based; conditions: 30 μM, 4 hours, U2OS Rev-GFP cells
T2 construct: expressed in transfected cells; host or cells: U2OS (osteosarcoma) cells stably expressing Rev-GFP
Procedure: (§2) U2OS (osteosarcoma) cells stably expressing GFP-tagged HIV-Rev fused to the cAMP-dependent protein kinase inhibitor (PM) nuclear export signal (Rev-GFP) were transiently transfected with constructs expressing wild-type CRM1 or mutant CRM1-Cys528Ser for 36 hours. The transient transfection efficiency in the experiment was estimated to be 50%.

mutant CRM1-Cys528Ser = target: T3, mutant CRM1-Cys528Ser (Homo sapiens, UniProt O14980, C528S); test: Cys 528 mutation assay, Rev-GFP localization; format: cell-based; conditions: 30 μM, U2OS Rev-GFP cells
T3 construct: expressed in transfected cells; host or cells: U2OS (osteosarcoma) cells stably expressing Rev-GFP
Procedure: as §2

Calu-3 = test: MTT assay panel; format: cell-based; conditions: Homo sapiens; Calu-3 cells, 72 hours
Procedure: Compound 124 was further tested against a panel of selected solid and hematological cancer cell lines and selected normal cell lines in an MTT assay. Briefly, the various cell lines above were plated at different densities on day 1. […] Cell Titer AQueous One was added to each well, and the plates were read in a plate reader at OD 495.

T3 sequence (O14980 whole entry C528S): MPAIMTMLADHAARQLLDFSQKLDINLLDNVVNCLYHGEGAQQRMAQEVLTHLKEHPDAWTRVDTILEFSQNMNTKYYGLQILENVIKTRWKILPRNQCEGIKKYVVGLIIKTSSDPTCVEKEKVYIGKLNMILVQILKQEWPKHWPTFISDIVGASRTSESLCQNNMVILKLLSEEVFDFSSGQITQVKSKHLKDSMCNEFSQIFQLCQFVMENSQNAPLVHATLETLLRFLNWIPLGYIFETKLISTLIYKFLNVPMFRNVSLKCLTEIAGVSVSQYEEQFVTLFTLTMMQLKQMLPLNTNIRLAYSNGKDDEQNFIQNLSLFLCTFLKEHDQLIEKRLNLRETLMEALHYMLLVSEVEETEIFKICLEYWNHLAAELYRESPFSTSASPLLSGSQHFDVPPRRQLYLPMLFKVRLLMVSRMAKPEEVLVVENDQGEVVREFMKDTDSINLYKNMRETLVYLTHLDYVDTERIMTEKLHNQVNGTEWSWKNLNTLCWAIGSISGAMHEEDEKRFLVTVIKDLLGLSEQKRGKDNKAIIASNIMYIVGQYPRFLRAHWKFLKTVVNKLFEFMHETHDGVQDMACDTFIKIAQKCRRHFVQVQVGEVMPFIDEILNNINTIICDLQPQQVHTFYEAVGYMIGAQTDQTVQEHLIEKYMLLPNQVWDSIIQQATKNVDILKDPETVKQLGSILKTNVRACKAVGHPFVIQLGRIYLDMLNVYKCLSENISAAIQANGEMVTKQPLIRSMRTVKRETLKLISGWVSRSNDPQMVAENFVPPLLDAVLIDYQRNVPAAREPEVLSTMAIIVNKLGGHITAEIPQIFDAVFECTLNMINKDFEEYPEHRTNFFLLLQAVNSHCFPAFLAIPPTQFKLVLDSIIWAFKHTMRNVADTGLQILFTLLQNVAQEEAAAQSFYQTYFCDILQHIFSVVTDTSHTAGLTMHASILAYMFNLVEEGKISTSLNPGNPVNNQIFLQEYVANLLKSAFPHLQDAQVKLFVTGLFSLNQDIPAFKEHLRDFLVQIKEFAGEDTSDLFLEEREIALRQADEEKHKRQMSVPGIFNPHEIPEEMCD
T2 sequence (O14980 whole entry, species assumed): as the sequence (O14980 whole entry C528S) above, with S528C counted along it
T1 sequence (O14980 whole entry): as the sequence (O14980 whole entry C528S) above, with S528C counted along it

- decrease in effectiveness after a 24 hour washout (CRM1): 6 fold
- IC50 (Calu-3): 1380 nM
Structure (SMILES): NC(=O)/C(=C/n1cnc(-c2cc(C(F)(F)F)cc(C(F)(F)F)c2)n1)c1cncnc1 [Compound 124, (E)-3-(3-(3,5-bis(trifluoromethyl)phenyl)-1H-1,2,4-triazol-1-yl)-2-(pyrimidin-5-yl)acrylamide]
- mean tumor volume (MOLT 4 xenograft): mean tumor volume was reduced
- nuclear localization of XPO1 cargo proteins [1]: increased or complete nuclear localization of XPO1 cargoes
- spheroid cell growth (U251MG spheroids): shrinking of the spheroid with complete elimination of any cell growth out of the sphere
- spheroid cell growth (U87MG spheroids): significant reduction in cell growth
- mean tumor volume compared with standard of care (Z-138 xenograft; 15 mg/kg PO daily, versus cyclophosphamide): compared favorably
- mean tumor volume (Z-138 xenograft; 5 or 15 mg/kg PO daily, CB-17 SCID mice, compared to vehicle): mean tumor volume was reduced
- mean tumor volume (MDA-MB-468 xenograft): mean tumor volume was reduced
- Rev-GFP localization, wild-type CRM1 co-expressed (wild-type CRM1): Rev-GFP was localized to the cell nucleus and nucleolus
- Rev-GFP localization, mutant CRM1-Cys528Ser co-expressed (mutant CRM1-Cys528Ser): did not induce nuclear localization of Rev-GFP
